Measurements reported in ChEMBL document CHEMBL6177964 (Eur J Med Chem, 2025).
pIC50, pKd: −log10 of the molar value. Active and inactive are the calls of the source. No cut-off for these calls is given here. Residues, ends and D or L forms follow the SMILES beside them.

What was measured:
[1] = target: T1, Angiotensin-converting enzyme (Homo sapiens, UniProt P12821); assay: Inhibition of ACE (unknown origin) preincubated with compound for 5 mins and measured after 60 mins
[2] = target: T1, Angiotensin-converting enzyme; assay: Binding affinity to ACE (unknown origin) measured at 20 mins
[3] = target: T1, Angiotensin-converting enzyme; assay: Binding affinity to ACE (unknown origin) assessed as dissociation constant by isothermal titration calorimetric analysis
[4] = target: T1, Angiotensin-converting enzyme; assay: Binding affinity to ACE (unknown origin) assessed as change in enthalpy at 800 to 1400 nM by isothermal titration calorimetric analysis; conditions: dose 800-1400 nM
[5] = target: T1, Angiotensin-converting enzyme; assay: Binding affinity to ACE (unknown origin) assessed as change in entropy (-TdeltaS) at 800 to 1400 nM by isothermal titration calorimetric analysis; conditions: dose 800-1400 nM
[6] = target: T1, Angiotensin-converting enzyme; assay: Binding affinity to ACE (unknown origin) assessed as change in Gibbs free energy at 800 to 1400 nM by isothermal titration calorimetric analysis; conditions: dose 800-1400 nM
[7] = target: T1, Angiotensin-converting enzyme; assay: Binding affinity to ACE (unknown origin) assessed as change in entropy (deltaS) at 800 to 1400 nM by isothermal titration calorimetric analysis; conditions: dose 800-1400 nM

T1 sequence (P12821 whole entry): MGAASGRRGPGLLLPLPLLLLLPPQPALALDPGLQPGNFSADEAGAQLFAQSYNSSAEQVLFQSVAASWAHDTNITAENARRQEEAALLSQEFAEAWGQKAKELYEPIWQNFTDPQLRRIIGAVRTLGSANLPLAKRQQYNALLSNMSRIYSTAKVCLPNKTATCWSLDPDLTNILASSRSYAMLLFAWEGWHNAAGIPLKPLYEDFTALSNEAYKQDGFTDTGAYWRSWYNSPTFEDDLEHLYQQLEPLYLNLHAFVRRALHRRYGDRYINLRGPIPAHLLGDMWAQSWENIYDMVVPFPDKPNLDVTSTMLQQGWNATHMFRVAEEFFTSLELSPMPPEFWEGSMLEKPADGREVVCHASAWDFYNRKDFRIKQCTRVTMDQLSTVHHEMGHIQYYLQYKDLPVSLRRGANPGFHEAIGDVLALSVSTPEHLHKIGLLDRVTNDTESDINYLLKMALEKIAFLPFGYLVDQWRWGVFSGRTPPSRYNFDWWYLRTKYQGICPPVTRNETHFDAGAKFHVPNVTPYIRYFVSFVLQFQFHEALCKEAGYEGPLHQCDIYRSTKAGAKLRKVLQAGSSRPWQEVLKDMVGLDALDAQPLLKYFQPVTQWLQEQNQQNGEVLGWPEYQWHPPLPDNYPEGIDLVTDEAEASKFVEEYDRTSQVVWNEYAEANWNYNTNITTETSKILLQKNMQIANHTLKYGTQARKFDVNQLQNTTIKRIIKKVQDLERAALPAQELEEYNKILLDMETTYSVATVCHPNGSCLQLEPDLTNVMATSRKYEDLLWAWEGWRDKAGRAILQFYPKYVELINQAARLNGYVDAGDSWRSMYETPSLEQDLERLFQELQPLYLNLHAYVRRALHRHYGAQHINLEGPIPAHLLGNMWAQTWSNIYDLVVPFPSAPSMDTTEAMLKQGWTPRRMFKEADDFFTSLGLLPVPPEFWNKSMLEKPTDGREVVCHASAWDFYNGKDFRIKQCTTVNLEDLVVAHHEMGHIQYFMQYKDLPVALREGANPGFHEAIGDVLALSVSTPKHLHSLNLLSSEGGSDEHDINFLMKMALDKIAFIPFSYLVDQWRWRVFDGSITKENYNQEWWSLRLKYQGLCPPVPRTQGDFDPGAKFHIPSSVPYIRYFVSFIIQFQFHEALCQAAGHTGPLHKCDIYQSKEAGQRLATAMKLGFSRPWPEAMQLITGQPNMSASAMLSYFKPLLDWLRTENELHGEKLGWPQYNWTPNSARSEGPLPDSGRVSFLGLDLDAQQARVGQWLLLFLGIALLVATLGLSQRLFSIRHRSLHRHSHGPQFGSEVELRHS

pIC50 [1] | SMILES | other results
4.44 | NCC(=O)N[C@@H](CCC(=O)O)C(=O)N1CCC[C@H]1C(=O)N[C@@H](Cc1ccccc1)C(=O)O (H-GEPF-OH) | –
2.52 | N=C(N)NCCC[C@H](NC(=O)[C@@H]1CCCN1C(=O)[C@H](CC(N)=O)NC(=O)CN)C(=O)O (H-GNPR-OH) | –
3.18 | C[C@H](NC(=O)[C@H](CCCCN)NC(=O)[C@H](C)NC(=O)[C@@H](N)CCCCN)C(=O)O (H-KAKA-OH) | –
4.90 | C[C@H](NC(=O)[C@@H](N)CCCCN)C(=O)N[C@@H](CCCCN)C(=O)N[C@@H](Cc1ccccc1)C(=O)O (H-KAKF-OH) | –
2.16 | CC[C@H](C)[C@H](NC(=O)[C@H](CCCCN)NC(=O)[C@H](C)NC(=O)[C@@H](N)CCCCN)C(=O)O (H-KAKI-OH) | –
2.58 | CC(C)C[C@H](NC(=O)[C@H](CCCCN)NC(=O)[C@H](C)NC(=O)[C@@H](N)CCCCN)C(=O)O (H-KAKL-OH) | –
3.10 | CSCC[C@H](NC(=O)[C@H](CCCCN)NC(=O)[C@H](C)NC(=O)[C@@H](N)CCCCN)C(=O)O (H-KAKM-OH) | –
5.14 | C[C@H](NC(=O)[C@@H](N)CCCCN)C(=O)N[C@@H](CCCCN)C(=O)N1CCC[C@H]1C(=O)O (H-KAKP-OH) | Activity [2]: Active; pKd [3]: 6.85; deltaH [4]: -1.84 kcal/mol; -TdeltaS [5]: -7.51 kcal/mol; deltaG [6]: -9.35 kcal/mol; deltaS [7]: 25.2 cal/mol.K
2.53 | CC(C)[C@H](NC(=O)[C@H](CCCCN)NC(=O)[C@H](C)NC(=O)[C@@H](N)CCCCN)C(=O)O (H-KAKV-OH) | –
